Consider 15 molecules from PubChem BioAssay (NCI).

Among the test systems are A549 NSCLC; NCI-H226 lung; NCI-H460 lung; SK-OV-3 ovarian; SNB-75 CNS; SR leukemia; SW-620 colon; UACC-257 melanoma; MDA-MB-231 breast; MCF7 breast.
Holding throughout (test): inhibition of tumour cell growth, NCI panel, 48 h

Values joined by “and” are separate entries in the source; they are usually repeats but may differ in a detail not shown here. Equal entries are not always repeated.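 Cultured in 96-well plates, cells were exposed to test compound for 48 hours across five concentrations. At the GI50, growth is halved. The concentration for full growth arrest is given as TGI.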

For the molecule `O=C1c2ccccc2C2(O)Oc3cccc(O)c3C12O` (stereo unspecified), the TGI in the assay on A549 NSCLC, with NCI-H226 lung, in the assay with NCI-H460 lung, in the assay with SK-OV-3 ovarian, in the assay with SNB-75 CNS and with SR leukemia was above 100 µM in each case. Besides, the TGI with SW-620 colon and with UACC-257 melanoma was above 100 µM in each case.

With `COc1ccc(CCC2NCCc3cc(OC)c(OC)cc32)cc1` (stereo unspecified), the TGI with A549 NSCLC, in the assay on NCI-H460 lung, with SNB-75 CNS, with SW-620 colon and in the assay on UACC-257 melanoma was above 100 µM in each case.

On to `COc1cc2c3c(n(CCCNCCN4CCOCC4)c(=O)c2cc1OC)-c1cc2c(cc1C3=O)OCO2`, for which the GI50 in the assay with A549 NSCLC was 0.182 µM and 1.37 µM; with MDA-MB-231 breast, 2.18 µM; with NCI-H226 lung, 15.1 µM; in the assay with SK-OV-3 ovarian it was 4.68 µM and 1.27 µM; in the assay with SNB-75 CNS, 13.6 µM and 3.69 µM; in the assay with SR leukemia, below 0.005 µM. Besides, the GI50 is 0.0762 µM in the assay with SW-620 colon; 6.99 µM and 19.2 µM with UACC-257 melanoma. For the same molecule, the TGI was 5.42 µM in the assay on A549 NSCLC; 5.72 µM in the assay with MDA-MB-231 breast; 53.8 µM with NCI-H226 lung; 50 µM and 9.87 µM with SNB-75 CNS; 1.33 µM in the assay on SW-620 colon; 14.2 µM and 46.2 µM in the assay on UACC-257 melanoma.

For the molecule `CN(C)CCCC(=O)Nc1ccc(Cn2nnc3c2C(=O)c2nnn(Cc4ccc(NC(=O)CCCN(C)C)cc4)c2C3=O)cc1`, the GI50 in the assay with A549 NSCLC is 16.8 µM; with MCF7 breast it was 1.45 µM; with NCI-H226 lung it was 16.5 µM; in the assay on NCI-H460 lung it was 2.82 µM; with SK-OV-3 ovarian, 20.9 µM; in the assay on SNB-75 CNS, 1.69 µM. The GI50 was 3.36 µM in the assay with SR leukemia, 3.43 µM in the assay with SW-620 colon and 3.25 µM in the assay with UACC-257 melanoma. Moreover, the TGI stood at 39.2 µM in the assay on A549 NSCLC; 3.52 µM in the assay with MCF7 breast; 42.2 µM with NCI-H226 lung; 10.8 µM in the assay with NCI-H460 lung; 49 µM with SK-OV-3 ovarian; 3.06 µM with SNB-75 CNS. For the same molecule, the results for the TGI in the assay on SR leukemia, in the assay on SW-620 colon and in the assay on UACC-257 melanoma were 61.4 µM, 12.2 µM and 11.6 µM, respectively.

Consider `COc1ccc(S(=O)(=O)N/N=C(\C)CN2C(=O)c3ccccc3C2=O)cc1`, for which the TGI with A549 NSCLC, with NCI-H226 lung, with NCI-H460 lung, in the assay with SK-OV-3 ovarian, in the assay with SNB-75 CNS and in the assay on SR leukemia was above 100 µM each time. In addition, the TGI in the assay on SW-620 colon and in the assay on UACC-257 melanoma was above 100 µM each time.

For the molecule `O=C1CCC2CCOc3ccc(O)c1c32` (stereo unspecified), the TGI with A549 NSCLC, in the assay with NCI-H226 lung, in the assay on NCI-H460 lung, in the assay on SK-OV-3 ovarian, with SNB-75 CNS and in the assay on SR leukemia was above 100 µM throughout. This molecule also returned a TGI in the assay on UACC-257 melanoma above 100 µM.

For the molecule `Cc1ccc(N(C(=O)CC(=O)N2N=C(c3ccccc3)C(N=Nc3ccc([N+](=O)[O-])cc3)C2=O)C(=O)c2ccc(Cl)cc2)cc1` (stereo unspecified), the TGI was above 51.8 µM with A549 NSCLC; above 94.8 µM in the assay with NCI-H226 lung; above 47.8 µM in the assay with NCI-H460 lung; 32.2 µM in the assay on SK-OV-3 ovarian; 39.1 µM in the assay with SNB-75 CNS; 23.1 µM in the assay with SR leukemia. In addition, the TGI was above 59.6 µM in the assay with SW-620 colon and above 72.7 µM in the assay with UACC-257 melanoma.

As for `Cc1cccc(N2C(=O)C(=O)C(c3nc4ccccc4s3)C(=O)C2=O)c1C`, the TGI in the assay on A549 NSCLC, in the assay on NCI-H226 lung, in the assay on SK-OV-3 ovarian, in the assay with SNB-75 CNS, with SR leukemia and in the assay on SW-620 colon was above 100 µM each time. In the assay with UACC-257 melanoma, this molecule displayed a TGI above 100 µM.

Regarding `COC1(OC)c2ccccc2C2(O)c3ccccc3C(=O)C12` (stereo unspecified), the TGI in the assay with NCI-H226 lung, with NCI-H460 lung, in the assay with SK-OV-3 ovarian, with SNB-75 CNS, in the assay with SR leukemia and in the assay on SW-620 colon was above 100 µM each time. This molecule also came in with a TGI in the assay with UACC-257 melanoma of 83.9 µM.

Turning to `C1C[OH+]CC[OH+]CC[OH+]CC[OH+]CC[OH+]CC[OH+]1.[Cl-].[Ta+5]`, the GI50 in the assay with A549 NSCLC is above 100 µM; with NCI-H226 lung, 13.3 µM; in the assay on NCI-H460 lung it was above 100 µM; in the assay on SK-OV-3 ovarian, above 100 µM; with SNB-75 CNS, 23.8 µM; in the assay with SW-620 colon, above 100 µM. Further, the GI50 with UACC-257 melanoma was above 100 µM. Moreover, the TGI with A549 NSCLC was above 100 µM; in the assay with NCI-H226 lung, 30.5 µM; in the assay on NCI-H460 lung, above 100 µM; in the assay on SK-OV-3 ovarian, above 100 µM; in the assay with SNB-75 CNS, above 100 µM; in the assay with SW-620 colon it was above 100 µM. In the assay with UACC-257 melanoma, this molecule gave a TGI above 100 µM.

Regarding `Cc1nn(C)c(=O)c2nn(-c3ccccc3)c(C)c12`, the TGI with A549 NSCLC, in the assay on NCI-H226 lung, with NCI-H460 lung, with SK-OV-3 ovarian, with SNB-75 CNS and in the assay with SR leukemia was above 100 µM each time. For the same molecule, the TGI with SW-620 colon and with UACC-257 melanoma was above 100 µM each time.

Consider `C=CCC(C)(C(=O)NCCC)C(=O)c1ccccc1O` (stereo unspecified), for which the TGI with A549 NSCLC, in the assay with NCI-H226 lung, in the assay on NCI-H460 lung, in the assay with SK-OV-3 ovarian, in the assay with SNB-75 CNS and in the assay with SR leukemia was above 100 µM throughout. The TGI in the assay with SW-620 colon and in the assay on UACC-257 melanoma was above 100 µM throughout.

`CC1=N/C(=C\c2cccc3ccccc23)C(=O)O1`: the TGI in the assay on A549 NSCLC, in the assay on NCI-H460 lung, in the assay with SW-620 colon and with UACC-257 melanoma was above 100 µM each time.

Regarding `O=C(/C=C/c1ccc(Cl)cc1)c1ccncc1`, the TGI in the assay on A549 NSCLC is above 100 µM; in the assay with NCI-H226 lung it was above 100 µM; with NCI-H460 lung it was above 100 µM; in the assay with SK-OV-3 ovarian, above 100 µM; with SNB-75 CNS, 83.6 µM; with SR leukemia, above 100 µM. The TGI with SW-620 colon and in the assay with UACC-257 melanoma was above 100 µM in each case.

On to `C=CCNC(=S)OCCCCCCCCCC`, for which the TGI in the assay on A549 NSCLC turned out to be 76.2 µM; with NCI-H460 lung it was 33 µM; in the assay with SK-OV-3 ovarian, 43.3 µM; in the assay with SNB-75 CNS it was 49.8 µM; with SR leukemia, 78.3 µM; with SW-620 colon it was 32.7 µM. Besides, the TGI in the assay on UACC-257 melanoma was 34.6 µM.
